The results in this text go back to ChEMBL document CHEMBL1681648, “Synthesis and in vitro antibacterial activity of oxazolidine LBM-415 analogs as peptide deformylase inhibitors” (2011).

Common to all, as to format: functional
One assay concerns Staphylococcus aureus. Description: Antimicrobial activity against Staphylococcus aureus 26003 after 24 hrs by agar dilution method. Conditions: Staphylococcus aureus, 26003, 24 h. On the technique in general: Agar dilution tests growth on a series of plates holding different concentrations.
In the next assay the test system is Shigella flexneri. The assay is described as follows: Antimicrobial activity against Shigella flexneri 92475 after 24 hrs by agar dilution method. The note with it: Shigella flexneri, 92475, 24 h.
For another assay, the system named is Shigella boydii. The assay is described as follows: Antimicrobial activity against Shigella boydii 51313 after 24 hrs by agar dilution method. Conditions: Shigella boydii, 51313, 24 h.
In another assay the test system is Streptococcus pneumoniae. The assay is described as follows: Antimicrobial activity against Streptococcus pneumoniae 31002 after 24 hrs by agar dilution method. The note with it: Streptococcus pneumoniae, 31002, 24 h.
Assay [1] in a line: Antimicrobial activity against Streptomyces albus 260101 after 24 hrs by agar dilution method. The note with it: Streptomyces albus, 260101, 24 h.

≈ marks a conversion by molar mass, not a printed value.

As a reminder, the MIC is the least concentration at which growth counts as inhibited. A higher MIC goes with a less susceptible organism.

With `CCCC[C@H](CN(O)C=O)C(=O)N1COC[C@H]1C(=O)Nc1ccccc1`, the MIC against Staphylococcus aureus was 0.39 µg/mL (≈ 1.07 µM); against Shigella flexneri, above 6.25 µg/mL; against Shigella boydii, above 6.25 µg/mL; in the assay with Streptococcus pneumoniae it was 0.195 µg/mL (≈ 0.537 µM); in assay [1], 0.39 µg/mL (≈ 1.07 µM).

In the case of `CCCC[C@H](CN(O)C=O)C(=O)N1COC[C@H]1C(=O)Nc1ccc(C)cc1`, the minimum inhibitory concentration (MIC) against Staphylococcus aureus was 0.78 µg/mL (≈ 2.07 µM); with Shigella flexneri, above 6.25 µg/mL; in the assay with Shigella boydii it was above 6.25 µg/mL; with Streptococcus pneumoniae, 0.195 µg/mL (≈ 0.517 µM); in assay [1], 0.78 µg/mL (≈ 2.07 µM).

Take `CCCC[C@H](CN(O)C=O)C(=O)N1COC[C@H]1C(=O)Nc1ccc(F)cc1`: the MIC with Staphylococcus aureus is 0.39 µg/mL (≈ 1.02 µM); with Shigella flexneri it was above 6.25 µg/mL; against Shigella boydii, above 6.25 µg/mL; against Streptococcus pneumoniae, 0.195 µg/mL (≈ 0.511 µM); in assay [1] it was 0.39 µg/mL (≈ 1.02 µM).

Turning to `CCCC[C@H](CN(O)C=O)C(=O)N1COC[C@H]1C(=O)Nc1c(F)cccc1F`, the minimum inhibitory concentration (MIC) against Staphylococcus aureus is 0.39 µg/mL (≈ 0.976 µM); in the assay on Shigella flexneri, above 6.25 µg/mL; against Shigella boydii, above 6.25 µg/mL; in the assay on Streptococcus pneumoniae, 0.195 µg/mL (≈ 0.488 µM); in assay [1] it was 0.39 µg/mL (≈ 0.976 µM).

Turning to `CCCC[C@H](CN(O)C=O)C(=O)N1COC[C@H]1C(=O)Nc1ccc(OC)cc1`, the MIC with Staphylococcus aureus is 0.39 µg/mL (≈ 0.991 µM); against Shigella flexneri it was above 6.25 µg/mL; against Shigella boydii it was above 6.25 µg/mL; against Streptococcus pneumoniae, 0.195 µg/mL (≈ 0.496 µM); in assay [1] it was 0.78 µg/mL (≈ 1.98 µM).

Take `CCCC[C@H](CN(O)C=O)C(=O)N1COC[C@H]1C(=O)Nc1ccc(N2CCOCC2)c(F)c1`: the MIC in the assay with Staphylococcus aureus was 0.78 µg/mL (≈ 1.67 µM); with Shigella flexneri, above 6.25 µg/mL; in the assay with Shigella boydii, above 6.25 µg/mL; in the assay on Streptococcus pneumoniae it was 0.098 µg/mL (≈ 0.21 µM); in assay [1], 0.78 µg/mL (≈ 1.67 µM).

With `CCCC[C@H](CN(O)C=O)C(=O)N1COC[C@H]1C(=O)Nc1ccc(N2CCOCC2)c(Cl)c1`, the MIC against Staphylococcus aureus came out at 0.39 µg/mL (≈ 0.808 µM); in the assay on Shigella flexneri it was 6.25 µg/mL (≈ 12.9 µM); in the assay on Shigella boydii it was 6.25 µg/mL (≈ 12.9 µM); in the assay on Streptococcus pneumoniae, 0.098 µg/mL (≈ 0.203 µM); in assay [1], 0.39 µg/mL (≈ 0.808 µM).

On to `CCCC[C@H](CN(O)C=O)C(=O)N1COC[C@H]1C(=O)Nc1ccc(N2CCOCC2)cc1`, for which the MIC against Staphylococcus aureus is 1.56 µg/mL (≈ 3.48 µM); against Shigella flexneri, above 6.25 µg/mL; against Shigella boydii, 6.25 µg/mL (≈ 13.9 µM); in the assay with Streptococcus pneumoniae, 0.39 µg/mL (≈ 0.87 µM); in assay [1], 0.78 µg/mL (≈ 1.74 µM).

`CCCC[C@H](CN(O)C=O)C(=O)N1COC[C@H]1C(=O)Nc1ccc(F)cn1`: the MIC was found to be 0.78 µg/mL (≈ 2.04 µM) against Staphylococcus aureus; 3.13 µg/mL (≈ 8.19 µM) against Shigella flexneri; 3.13 µg/mL (≈ 8.19 µM) with Shigella boydii; 0.098 µg/mL (≈ 0.256 µM) in the assay on Streptococcus pneumoniae; 0.39 µg/mL (≈ 1.02 µM) in assay [1].

For the compound `CCCC[C@H](CN(O)C=O)C(=O)N1COC[C@H]1C(=O)N[C@@H](C)c1ccccc1`, the MIC in the assay on Staphylococcus aureus is 1.56 µg/mL (≈ 3.99 µM); with Shigella flexneri, above 6.25 µg/mL; in the assay with Shigella boydii it was above 6.25 µg/mL; in the assay on Streptococcus pneumoniae, 0.195 µg/mL (≈ 0.498 µM); in assay [1] it was 1.56 µg/mL (≈ 3.99 µM).

With `CCCC[C@H](CN(O)C=O)C(=O)N1COC[C@H]1C(=O)NCc1ccccc1`, the MIC with Staphylococcus aureus was 0.78 µg/mL (≈ 2.07 µM); with Shigella flexneri, above 6.25 µg/mL; in the assay on Shigella boydii it was above 6.25 µg/mL; against Streptococcus pneumoniae it was 0.78 µg/mL (≈ 2.07 µM); in assay [1] it was 1.56 µg/mL (≈ 4.13 µM).

As to `CCCC[C@H](CN(O)C=O)C(=O)N1CO[C@H](C)[C@H]1C(=O)Nc1ccc(C)cc1`, the MIC against Staphylococcus aureus was 1.56 µg/mL (≈ 3.99 µM); against Shigella flexneri, above 6.25 µg/mL; in the assay with Shigella boydii it was above 6.25 µg/mL; in the assay on Streptococcus pneumoniae, 0.098 µg/mL (≈ 0.25 µM); in assay [1], 0.78 µg/mL (≈ 1.99 µM).

`CCCC[C@H](CN(O)C=O)C(=O)N1CO[C@H](C)[C@H]1C(=O)Nc1ccc(F)cc1`: the MIC in the assay with Staphylococcus aureus was 1.56 µg/mL (≈ 3.95 µM); in the assay on Shigella flexneri it was above 6.25 µg/mL; in the assay on Shigella boydii, 3.13 µg/mL (≈ 7.92 µM); against Streptococcus pneumoniae it was 0.195 µg/mL (≈ 0.493 µM); in assay [1], 0.78 µg/mL (≈ 1.97 µM).

As for `CCCC[C@H](CN(O)C=O)C(=O)N1CO[C@H](C)[C@H]1C(=O)Nc1ccc(N2CCOCC2)c(F)c1`, the MIC is 0.78 µg/mL (≈ 1.62 µM) with Staphylococcus aureus; above 6.25 µg/mL in the assay with Shigella flexneri; above 6.25 µg/mL against Shigella boydii; 0.195 µg/mL (≈ 0.406 µM) in the assay on Streptococcus pneumoniae; 1.56 µg/mL (≈ 3.25 µM) in assay [1].

In the case of `CCCC[C@H](CN(O)C=O)C(=O)N1CO[C@H](C)[C@H]1C(=O)Nc1ccc(N2CCOCC2)c(Cl)c1`, the MIC in the assay with Staphylococcus aureus was 0.78 µg/mL (≈ 1.57 µM); in the assay on Shigella flexneri, above 6.25 µg/mL; in the assay with Shigella boydii it was above 6.25 µg/mL; with Streptococcus pneumoniae, 0.098 µg/mL (≈ 0.197 µM); in assay [1], 0.39 µg/mL (≈ 0.785 µM).

Consider `CCCC[C@H](CN(O)C=O)C(=O)N1CO[C@H](C)[C@H]1C(=O)Nc1ccc(F)cn1`, for which the MIC against Staphylococcus aureus was 1.56 µg/mL (≈ 3.94 µM); against Shigella flexneri, above 6.25 µg/mL; in the assay with Shigella boydii it was 3.13 µg/mL (≈ 7.9 µM); in the assay with Streptococcus pneumoniae, 0.39 µg/mL (≈ 0.984 µM); in assay [1], 0.39 µg/mL (≈ 0.984 µM).

As for `CCCC[C@H](CN(O)C=O)C(=O)N1COC[C@H]1C(=O)Nc1ccc(F)c[n+]1[O-]`, the MIC was 0.78 µg/mL (≈ 1.96 µM) in the assay on Staphylococcus aureus; above 6.25 µg/mL with Shigella flexneri; 3.13 µg/mL (≈ 7.86 µM) with Shigella boydii; 0.195 µg/mL (≈ 0.489 µM) in the assay with Streptococcus pneumoniae; 0.78 µg/mL (≈ 1.96 µM) in assay [1].

For the compound `CCCC[C@H](CN(O)C=O)C(=O)N1CO[C@H](C)[C@H]1C(=O)Nc1ccc(F)c[n+]1[O-]`, the MIC was 1.56 µg/mL (≈ 3.78 µM) with Staphylococcus aureus; above 6.25 µg/mL against Shigella flexneri; above 6.25 µg/mL in the assay on Shigella boydii; 0.195 µg/mL (≈ 0.473 µM) in the assay with Streptococcus pneumoniae; 0.78 µg/mL (≈ 1.89 µM) in assay [1].

Take `CCCC[C@H](CN(O)C=O)C(=O)N1CCC[C@H]1C(=O)Nc1ccc(F)c[n+]1[O-]`: the MIC in the assay with Staphylococcus aureus is 0.39 µg/mL (≈ 0.984 µM); in the assay on Shigella flexneri it was above 6.25 µg/mL; in the assay on Shigella boydii, 6.25 µg/mL (≈ 15.8 µM); against Streptococcus pneumoniae it was 0.195 µg/mL (≈ 0.492 µM); in assay [1] it was 0.39 µg/mL (≈ 0.984 µM).
